# “Also recorded” adds a separate entry of the source. Read-outs that look alike come from different tables or passages of the source.
# How the values were obtained:
# HIV-1 (IIIB isolate) = assay: HIV-1 inhibition (p24 antigen ELISA) in infected H9 lymphocytes; type: cell-based; conditions: for Therapeutic Index (TI = IC50/EC50): H9 cells, average of at least two experiments; for anti-HIV activity, result in words / TI, result in words: H-9 lymphocytes; for anti-HIV activity, result in words: EC50 compared with related compounds; for EC50: Human immunodeficiency virus 1, IIIB, Lymphocyte, 96 h, read-out: Anti-HIV Activity EC50; for TI, result in words: compared with related compounds
# Description: (§1) Aliquot of this cell line were only used in experiments when in log-phase growth. Test samples were first dissolved in dimethyl sulfoxide. The following final drug concentrations were routinely used for screening: 100, 20, 4 and 0.8 μg/ml. For active agents, additional dilutions were prepared for subsequent testing so that an accurate EC50 value (defined below) could be achieved. […] The appropriate amount of virus for a multiplicity of infection (moi) between 0.1 and 0.01 Infectious Units/cell was added to the first aliquot of H9 cells. The other aliquot only received culture medium, and these mock-infected cells were used for toxicity determinations (IC50, defined below). After a 4 h incubation at 37° C. and 5% CO2, both cell populations were washed three times with fresh medium and then added to the appropriate wells of a 24 well-plate containing the various concentrations of the test drug or culture medium (positive infected control/negative drug control). In addition, AZT was also assayed during each experiment as a positive drug control. The plates were incubated at 37° C. and 5% CO2 for 4 days. Cell-free supernatants were collected on Day 4 for use in a p24 antigen ELISA assay. P24 antigen is a core protein of HIV and therefore is an indirect measure of virus present in the supernatants. Toxicity was determined by performing cell counts by a Coulter Counter on the mock-infected H9 cells which had either received culture medium (no toxicity), test sample, or AZT.
# Compounds of the present invention were assayed for anti-HIV activity according to the following assay procedures. […] The cell lines were used in experiments only when in the logarithmic phase of growth, whereas uninfected peripheral blood mononuclear cells (PBMCs) were first stimulated with PHA (1 μg/mL) for three days. […] The cell lines and PBMCs were washed thoroughly to remove unadsorbed virions and resuspended at 4×10^5 cells/ml in complete medium or complete medium with 10% v/v interleukin 2 (IL-2) , respectively. One ml. aliquots were placed into wells of 24-well culture plates containing an equal volume of test compounds (diluted in the appropriate culture medium). The toxicity of each compound was assessed by determining the number of compound-exposed uninfected cells that remained after four days at 37° C. and 5% CO2. A p24 antigen ELISA assay was used to determine the level of virus released in the medium of the HIV-infected cultures. The p24 antigen assay used a HIV-1 anti-p24 specific monoclonal antibody as the capture antibody coated onto 96-well plates. […] P24 in the culture medium was quantitated against a standard curve containing known amounts of p24. The effective (EC50) and inhibitory (IC50) concentrations for anti-HIV activity and cytotoxicity, respectively, were determined.
# [1] = Cytotoxicity: cell counts of mock-infected H9 cells; type: cell-based; conditions: human
# Description: as §1, with “The biological evaluation of HIV-1 inhibition was carried out according to established protocols, (Kashiwada, Y., et al., J Med Chem. 39:1016-1017 (1996); Hashimoto, F., et al., Bioorg. & Med Chem. 5:2133-2143 (1997)). The T cell line, H9, was maintained in continuous culture with complete medium (RPMI 1640 with 10% fetal calf serum supplemented with L-glutamine at 5% CO2 and 37° C.). Aliquot” for “Aliquot”, “achieved. As the test samples were being prepared, an aliquot of the H9 cell line was infected with HIV-1 (IIIB isolate) while another aliquot was mock-infected with complete medium.” for “achieved.”
# Compounds of the present invention were assayed for anti-HIV activity according to the following assay procedures. The T cell line, H9, and the promonocytic cell line, U937, were maintained separately in continuous culture with complete medium (RPMI 1640 with 10% fetal calf serum) at 5% CO2 and 37° C. The cell lines were used in experiments only when in the logarithmic phase of growth, whereas uninfected peripheral blood mononuclear cells (PBMCs) were first stimulated with PHA (1 μg/mL) for three days. All cell targets were incubated with HIV-1 (IIIB isolate, TCID50 10^4 IU/ml, at a multiplicity of infection of […] IU/cell) for one hour at 37° C. and 5% CO2. The cell lines and PBMCs were washed thoroughly to remove unadsorbed virions and resuspended at 4×10^5 cells/ml in complete medium or complete medium with 10% v/v interleukin 2 (IL-2) , respectively. One ml. aliquots were placed into wells of 24-well culture plates containing an equal volume of test compounds (diluted in the appropriate culture medium). The toxicity of each compound was assessed by determining the number of compound-exposed uninfected cells that remained after four days at 37° C. and 5% CO2. A p24 antigen ELISA assay was used to determine the level of virus released in the medium of the HIV-infected cultures. The p24 antigen assay used a HIV-1 anti-p24 specific monoclonal antibody as the capture antibody coated onto 96-well plates. Following a sample incubation period, rabbit serum containing antibodies for HIV-1 p24 was used to tag any p24 captured onto the microtiterwell surface. Peroxidase conjugated goat anti-rabbit serum was then used to tag HIV-1 p24 specific rabbit antibodies that had complexed with captured p24. […] The cutoff for the p24 ELISA assay was 12.5 pg/ml. P24 in the culture medium was quantitated against a standard curve containing known amounts of p24. […]
# [2] = toxic to 50% of mock-infected H9 cells, 4 days, average of at least two experiments, read-out: Cytotoxicity IC50
Compound,Therapeutic Index (TI = IC50/EC50) (HIV-1 (IIIB isolate)),"anti-HIV activity, result in words (HIV-1 (IIIB isolate))",EC50 (HIV-1 (IIIB isolate)),CC50 at 96 h ([1]; h9 cells),fold more potent than compound 3 (HIV-1 (IIIB isolate); compared with compound 3 (betulin)),"CC50 at 96 h [1, 2]","TI, result in words (HIV-1 (IIIB isolate))",fold drop in TI on saturation of C20-C29 double bond (HIV-1 (IIIB isolate); compared with compound 4),fold drop in activity on saturation of C20-C29 double bond (HIV-1 (IIIB isolate); compared with compound 4)
"C=C(C)[C@@H]1CC[C@]2(COC(=O)CC(C)(C)CC(=O)O)CC[C@]3(C)[C@H](CC[C@@H]4[C@@]5(C)CCC(=O)C(C)(C)[C@@H]5CC[C@]43C)[C@@H]12 [Compound 12, 3-Deoxy-3-oxo-28-O-(3',3'-dimethylglutaryl)-betulin]",2.9,decreased activity further,10 µM,29.2 µM,,,,,
C=C(C)[C@@H]1CC[C@]2(COC(=O)CC(C)(C)CC(=O)O)CC[C@]3(C)[C@H](CC[C@@H]4[C@@]5(C)CC=CC(C)(C)[C@@H]5CC[C@]43C)[C@@H]12 [Compound 14],5.2,increased anti-HIV activity,5.4 µM,28.3 µM,,,,,
"C=C(C)[C@@H]1CC[C@]2(COC(=O)CC(C)(CC)CC(=O)O)CC[C@]3(C)[C@H](CC[C@@H]4[C@@]5(C)CC[C@H](OC(=O)CC(C)(CC)CC(=O)O)C(C)(C)[C@@H]5CC[C@]43C)[C@@H]12 (stereo partly shown) [Compound 5, 3,28-Di-O-(3',3'-methylethylglutaryl)-betulin]","3,476",in the nanomolar range; also recorded: less active compared with compound 4,0.0053 µM,18.4 µM,,,,,
"C=C(C)[C@@H]1CC[C@]2(COC(=O)CC(C)(C)CC(=O)O)CC[C@]3(C)[C@H](CC[C@@H]4[C@@]5(C)CC[C@H](O)C(C)(C)[C@@H]5CC[C@]43C)[C@@H]12 [Compound 11, 28-O-(3',3'-Dimethylglutaryl)-betulin]",7.8,much less potent than 4,3.6 µM,28.2 µM,6 fold,,,,
"C=C(C)[C@@H]1CC[C@]2(C(=O)O)CC[C@]3(C)[C@H](CC[C@@H]4[C@@]5(C)CC[C@H](OC(=O)CC(C)(C)CC(=O)O)C(C)(C)[C@@H]5CC[C@]43C)[C@@H]12 [Compound 2, reference compound]",,,0.0023 µM,4.5 µM,,,,,
"CCC(C)(CC(=O)O)CC(=O)OC[C@]12CC[C@@H](C(C)C)[C@@H]1[C@H]1CC[C@@H]3[C@@]4(C)CC[C@H](OC(=O)CC(C)(CC)CC(=O)O)C(C)(C)[C@@H]4CC[C@@]3(C)[C@]1(C)CC2 (stereo partly shown) [Compound 9, 3,28-Di-O-(3',3'-methylethylglutaryl)-dihydrobetulin]",248,less inhibition than the unsaturated 5 and 6,0.075 µM,18.7 µM,,,,,
"C=C(C)[C@@H]1CC[C@]2(CO)CC[C@]3(C)[C@H](CC[C@@H]4[C@@]5(C)CC[C@H](O)C(C)(C)[C@@H]5CC[C@]43C)[C@@H]12 [Compound 3, betulin]",1.9,less potent than betulinic acid (1),23 µM,,,43.7 µM,,,
"C=C(C)[C@@H]1CC[C@]2(COC(=O)CC3(CC(=O)O)CCCC3)CC[C@]3(C)[C@H](CC[C@@H]4[C@@]5(C)CC[C@H](OC(=O)CC6(CC(=O)O)CCCC6)C(C)(C)[C@@H]5CC[C@]43C)[C@@H]12 [Compound 6, 3,28-Di-O-(3',3'-tetramethyleneglutaryl)-betulin]",267,in the nanomolar range; also recorded: less active compared with compound 4; also recorded: least activity,0.077 µM,20.5 µM,,,lowest TI values,,
"CC(C)[C@@H]1CC[C@]2(COC(=O)CC(C)(C)CC(=O)O)CC[C@]3(C)[C@H](CC[C@@H]4[C@@]5(C)CC[C@H](OC(=O)CC(C)(C)CC(=O)O)C(C)(C)[C@@H]5CC[C@]43C)[C@@H]12 [Compound 8, 3,28-Di-O-(3',3'-dimethyglutaryl)-dihydrobetulin]","2,253",,0.0047 µM,10.6 µM,,,,~9 fold,~7 fold
"CC(C)[C@@H]1CC[C@]2(COC(=O)CC3(CC(=O)O)CCCC3)CC[C@]3(C)[C@H](CC[C@@H]4[C@@]5(C)CC[C@H](OC(=O)CC6(CC(=O)O)CCCC6)C(C)(C)[C@@H]5CC[C@]43C)[C@@H]12 [Compound 10, 3,28-Di-O-(3',3'-tetramethyleneglutaryl)-dihydrobetulin]",37,less inhibition than the unsaturated 5 and 6; also recorded: least activity,0.58 µM,21.6 µM,,,lowest TI values,,
"Cc1cn([C@H]2C[C@H](N=[N+]=[N-])[C@@H](CO)O2)c(=O)[nH]c1=O [AZT, reference compound]",,,,,,500 µM,,,

# From US6172110A, “Acylated betulin and dihydrobetulin derivatives, preparation thereof and use thereof” (The University of North Carolina at Chapel Hill, priority 1999, dated 2001)
